Counter-ions that a name gives are not always drawn.
Assay: in vitro
Conditions: for differences in half-life and intrinsic clearance compared to 2-Br-LSD: human liver microsomes, significant = 15% or more increase in half-life, CLint ratio >1.15 or <0.85; for CLint / T1/2: pooled liver microsomes 0.5 mg/mL protein, test compound 1 μM, NADPH 1 mM, 37° C., 0-45 min, LC-MS/MS; for half-life / microsomal CLint: pH 7.4
Method: Test compound (1 μM) was incubated with pooled liver microsomes.
Pooled liver microsomes were purchased from a reputable commercial supplier. Microsomes were stored at −80° C. prior to use.
A minus cofactor control incubation was included for each compound tested where 0.1 M phosphate buffer pH 7.4 was added instead of NADPH (minus NADPH). Two control compounds were included with each species. All incubations were performed singularly for each test compound.
The reactions were stopped by transferring incubate into acetonitrile at the appropriate time points, in a 1:3 ratio. The termination plates were centrifuged at 3,000 rpm for 20 min at 4° C. to precipitate the protein.
Following protein precipitation, the sample supernatants were combined in cassettes of up to 4 compounds, internal standard was added and samples analyzed using generic LCMS/MS conditions.
From a plot of ln peak area ratio (compound peak area/internal standard peak area) against time, the gradient of the line was determined. Subsequently, half-life and intrinsic clearance were calculated using the equations below: […]
Relevant control compounds were assessed, ensuring intrinsic clearance values fell within the specified limits (if available). Any failures were rejected and the assay repeated. The intrinsic clearance (CLint) of the test compound and t ½ were returned.

Structure (SMILES)	differences in half-life and intrinsic clearance compared to 2-Br-LSD	CLint [μL/min/mg protein]	T1/2 [h]	half-life (human, microsomes) [h]	microsomal CLint (human, microsomes) [µL/min/mg]	differences in half-life and intrinsic clearance compared to LSD (human, microsomes)
[2H]c1c([2H])c2c3c(c(Br)[nH]c3c1[2H])C[C@@H]1C2=C[C@@H](C(=O)N(CC)CC)CN1C [Compound 1, (6aR,9R)-5-Bromo-N,N-diethyl-7-methyl-4,6,6a,7,8,9-hexahydroindolo[4,3-fg]quinoline-9-carboxamide-1,2,3-d3 formate]	differences	52.6	0.438			
[2H]C([2H])([2H])N1C[C@H](C(=O)N(CC)CC)C=C2c3cccc4[nH]c(Br)c(c34)C[C@H]21 [Compound 2, (6aR,9R)-5-bromo-N,N-diethyl-7-(methyl-d3)-4,6,6a,7,8,9-hexahydroindolo[4,3-fg]quinoline-9-carboxamide]	differences	49.4	0.468			
CCN(CC)C(=O)[C@@H]1C=C2c3cccc4[nH]c(Br)c(c34)C[C@H]2N(C)C1 [Compound 2-Br-LSD, 2-Bromolysergic acid diethylamide, reference compound]		56.3	0.41			
[2H]C([2H])([2H])C([2H])([2H])N(C(=O)[C@@H]1C=C2c3cccc4[nH]c(Br)c(c34)C[C@H]2N(C)C1)C([2H])([2H])C([2H])([2H])[2H] [Compound 7, (6aR,9R)-5-bromo-N,N-bis(ethyl-d5)-7-methyl-4,6,6a,7,8,9-hexahydroindolo[4,3-fg]quinoline-9-carboxamide]		44.6	0.518			
[2H]C([2H])([2H])N1C[C@H](C(=O)N(C([2H])([2H])C([2H])([2H])[2H])C([2H])([2H])C([2H])([2H])[2H])C=C2c3cccc4[nH]c(Br)c(c34)C[C@H]21 [Compound 9, (6aR,9R)-5-bromo-N,N-bis(ethyl-d5)-7-(methyl-d3)-4,6,6a,7,8,9-hexahydroindolo[4,3-fg]quinoline-9-carboxamide trifluoroacetate-d]		38.8	0.595			
[2H]c1[nH]c2cccc3c2c1C[C@@H]1C3=C[C@@H](C(=O)N(CC)CC)CN1C [Compound 41, (6aR,9R)-N,N-diethyl-7-methyl-4,6,6a,7,8,9-hexahydroindolo[4,3-fg]quinoline-9-carboxamide-4,5-d trifluoroacetate-d]		17.8	1.3			
[2H]c1[nH]c2c([2H])c([2H])c([2H])c3c2c1C[C@@H]1C3=C[C@@H](C(=O)N(CC)CC)CN1C [Compound 45, (6aR,9R)-N,N-diethyl-7-methyl-4,6,6a,7,8,9-hexahydroindolo[4,3-fg]quinoline-9-carboxamide-1,2,3,5-d4 triflate-d]		16.7	1.38			
[2H]C([2H])([2H])C([2H])([2H])N(C(=O)[C@@H]1C=C2c3cccc4[nH]cc(c34)C[C@H]2N(C)C1)C([2H])([2H])C([2H])([2H])[2H] [Compound 47, (6aR,9R)-N,N-Bis(ethyl-d5)-7-methyl-4,6,6a,7,8,9-hexahydroindolo[4,3-fg]quinoline-9-carboxamide]		17.2	1.35			
[2H]C([2H])([2H])N1C[C@H](C(=O)N(C([2H])([2H])C([2H])([2H])[2H])C([2H])([2H])C([2H])([2H])[2H])C=C2c3cccc4[nH]cc(c34)C[C@H]21 [Compound 50, (6aR,9R)-N,N-bis(ethyl-d5)-7-(methyl-d3)-4,6,6a,7,8,9-hexahydroindolo[4,3-fg]quinoline-9-carboxamide trifluoroacetate-d]				1.61	14.3	
[2H]c1[nH]c2cccc3c2c1C[C@@H]1C3=C[C@@H](C(=O)N(C([2H])([2H])C([2H])([2H])[2H])C([2H])([2H])C([2H])([2H])[2H])CN1C [Compound 55, (6aR,9R)-N,N-Bis(ethyl-d5)-7-methyl-4,6,6a,7,8,9-hexahydroindolo[4,3-fg]quinoline-9-carboxamide-5-d trifluoroacetate-d]				1.39	16.6	
[2H]c1[nH]c2c([2H])c([2H])c([2H])c3c2c1C[C@@H]1C3=C[C@@H](C(=O)N(C([2H])([2H])C([2H])([2H])[2H])C([2H])([2H])C([2H])([2H])[2H])CN1C [Compound 67, (6aR,9R)-N,N-Bis(ethyl-d5)-7-methyl-4,6,6a,7,8,9-hexahydroindolo[4,3-fg]quinoline-9-carboxamide-1,2,3,5-d4 triflate-d]				2	11.5	significant differences
CCN(CC)C(=O)[C@@H]1C=C2c3cccc4[nH]cc(c34)C[C@H]2N(C)C1 [LSD, Lysergic acid diethylamide, reference compound]				1.42	16.3	
COc1ccc2c(c1)[C@]13CCCC[C@@H]1[C@H](C2)N(C)CC3 [dextromethorphan, reference compound]					46.8	

From patent US20260092060A1, “IS[…] ANALOGS OF 2-BROMO-LSD, LSD, ALD-52, AND 1P-LSD” (priority 2021, published 2026)
